Results taken from paper PMC3914206.

What was measured:
Format in all cases: binding
Conditions in all cases: Compound Concentration 10 µM
panel of 442 kinases [1] = biological target: T1, panel of 442 kinases (Homo sapiens, UniProt P21802)
T1 construct: purchased KINOMEscan
Source text: (§1) We assessed the selectivity of members of this scaffold using the KINOMEscan methodology across a near comprehensive panel of 442 kinases [[18,27]].

panel of 442 kinases [2] = biological target: T2, panel of 442 kinases (Homo sapiens, UniProt P41240)
T2 construct: purchased KINOMEscan
T2 sequence (P41240 whole entry): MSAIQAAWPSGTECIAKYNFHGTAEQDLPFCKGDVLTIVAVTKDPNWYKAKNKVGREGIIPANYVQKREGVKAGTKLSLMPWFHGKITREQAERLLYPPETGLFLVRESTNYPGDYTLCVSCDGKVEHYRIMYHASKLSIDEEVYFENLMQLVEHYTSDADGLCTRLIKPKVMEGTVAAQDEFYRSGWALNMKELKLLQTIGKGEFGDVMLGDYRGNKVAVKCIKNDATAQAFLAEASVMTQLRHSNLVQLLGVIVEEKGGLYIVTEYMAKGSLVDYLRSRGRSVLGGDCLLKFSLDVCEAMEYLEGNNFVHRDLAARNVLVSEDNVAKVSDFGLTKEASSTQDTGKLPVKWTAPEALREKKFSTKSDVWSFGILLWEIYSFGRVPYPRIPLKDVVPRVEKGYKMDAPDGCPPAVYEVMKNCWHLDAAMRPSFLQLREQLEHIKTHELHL
Source text: as §1

panel of 442 kinases [3] = biological target: T3, panel of 442 kinases (Homo sapiens, UniProt P50750)
T3 construct: purchased KINOMEscan
T3 sequence (P50750 whole entry): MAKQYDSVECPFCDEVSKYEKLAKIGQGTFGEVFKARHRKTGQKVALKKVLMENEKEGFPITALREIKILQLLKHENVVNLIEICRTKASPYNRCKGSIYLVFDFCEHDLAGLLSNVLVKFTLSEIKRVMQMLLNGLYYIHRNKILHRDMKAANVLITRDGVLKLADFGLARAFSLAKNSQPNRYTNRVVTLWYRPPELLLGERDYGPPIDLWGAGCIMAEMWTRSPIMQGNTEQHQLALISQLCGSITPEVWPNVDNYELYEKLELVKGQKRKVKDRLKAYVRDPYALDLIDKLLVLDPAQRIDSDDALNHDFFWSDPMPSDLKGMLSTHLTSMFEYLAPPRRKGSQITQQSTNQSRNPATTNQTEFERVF
Source text: as §1

panel of 442 kinases [4] = biological target: T4, panel of 442 kinases (Homo sapiens, UniProt P22694)
T4 construct: purchased KINOMEscan
Source text: as §1

T1 sequence (P21802 22-821): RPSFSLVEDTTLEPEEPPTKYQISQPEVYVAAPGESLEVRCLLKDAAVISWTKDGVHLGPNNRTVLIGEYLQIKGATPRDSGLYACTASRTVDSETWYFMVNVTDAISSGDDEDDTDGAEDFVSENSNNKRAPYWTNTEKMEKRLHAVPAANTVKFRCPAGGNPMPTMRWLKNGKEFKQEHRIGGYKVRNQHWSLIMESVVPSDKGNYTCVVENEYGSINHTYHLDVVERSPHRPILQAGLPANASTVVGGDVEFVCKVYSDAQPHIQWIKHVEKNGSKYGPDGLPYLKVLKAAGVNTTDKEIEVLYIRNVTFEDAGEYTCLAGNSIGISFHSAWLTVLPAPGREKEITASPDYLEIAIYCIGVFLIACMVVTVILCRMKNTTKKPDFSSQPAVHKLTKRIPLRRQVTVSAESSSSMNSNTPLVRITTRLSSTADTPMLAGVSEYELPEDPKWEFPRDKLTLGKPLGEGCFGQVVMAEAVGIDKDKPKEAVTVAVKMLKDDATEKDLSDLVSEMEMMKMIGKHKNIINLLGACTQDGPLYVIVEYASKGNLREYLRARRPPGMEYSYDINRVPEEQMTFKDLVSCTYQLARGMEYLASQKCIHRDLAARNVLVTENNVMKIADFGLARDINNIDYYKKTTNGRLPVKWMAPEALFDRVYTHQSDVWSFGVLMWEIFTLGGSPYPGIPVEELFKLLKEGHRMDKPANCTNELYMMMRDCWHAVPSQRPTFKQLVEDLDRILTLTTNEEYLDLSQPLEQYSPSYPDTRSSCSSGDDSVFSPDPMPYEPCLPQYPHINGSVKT

SMILES | KINOMEscan: FGFR2 (panel of 442 kinases [1]) | KINOMEscan: CSK (panel of 442 kinases [2]) | KINOMEscan: CDK9 (panel of 442 kinases [3]) | KINOMEscan: PKAC-beta (panel of 442 kinases [4])
COc1cc(C(=O)N2CCC(N3CCN(C)CC3)CC2)ccc1Nc1ncc2c(n1)N1CCc3cccc(c31)C(=O)N2C [Compound 24] | 83 | 75 | 96 | 
CCOc1cc(C(=O)N2CCC(N3CCN(C)CC3)CC2)ccc1Nc1ncc2c(n1)N(C1CCCC1)c1ccccc1C(=O)N2C [Compound 26] | 100 | 100 | 100 | 100
COc1cc(C(=O)N2CCC(N3CCN(C)CC3)CC2)ccc1Nc1ncc2c(n1)N(C1CCCC1)c1ccccc1C(=O)N2C [Compound 25, 11-cyclopentyl-2-((2-methoxy-4-(4-(4-methylpiperazin-1-yl)piperidine-1-carbonyl)phenyl)amino)-5-methyl-5H-benzo[e]pyrimido[5,4-b][1,4]diazepin-6(11H)-one] | 100 | 74 | 98 | 100
COc1cc(C(=O)N2CCC(N3CCN(C)CC3)CC2)ccc1Nc1ncc2c(n1)N(C)c1ccccc1C(=O)N2C [15 (LRRK2-IN-1)] | 95 | 90 | 100 | 100
